# Assays:
# [1] = test system: porcine ex-vivo skin punches; test: Ex-vivo porcine wound healing model (skin punches, wound healing score); parameters: species or system pig; details: for Wound healing progress based on the PBS control (MW) / Absolute wound healing progress (wound healing score, MW): 5 μl into the wound, after 48 h; for Wound healing progress based on the PBS control (MW): PBS isotonic = 1.00; for Absolute wound healing progress (wound healing score, MW): score 0-4; for Wound healing potential: porcine ex-vivo skin punches
# Procedure: An ex-vivo porcine wound healing model was used as it has been described in patent publication DE 103 17 400 B4.
# From the plicae of washed and sterilized pig ears sample punches 6 mm in diameter were taken. From the center of the punches the epidermis and the upper dermis were removed in an area of 3 mm. Immediately after the models had been generated 5 μl of the test substances were introduced into the wounds, while 5 μl of PBS were applied into the control models. After 48 h (t48 h) the models were flash-frozen and stored at −80° C.
# 14 test series each were carried out so that 8 to 11 evaluable models were available for each sample.
# The models were completely embedded in tissue freezing medium (company of Leica, Nussloch), and 6 μm thin sections were prepared using a cryostat. Care had been taken that the focus was always in the center of the respective model.
# The sections were placed on SuperFrost object slides, air dried, fixed for 10 min. in −20° C. cold acetone, and stored at −80° C.
# All models were stained with hematoxylin/eosin (2 sections each). The sequence of the staining process was as follows:
# The staining was evaluated by means of a Leica light microscope DM LS and an Olympus Camedia digital camera.
# 0: No wound healing progress 1: Small wound tongue 2: Large wound tongue 3: Closed sheet 4: Multi-layered closed sheet.
# In the event that both wound margins could be assessed the average between the left and the right wound margin was determined. The statistical evaluations were made using Student's paired T-test.
# [2] = test system: ARPE-19 cells (adherent retinal pigment epithelial cells); test: Re-epithelialization scratch assay; format: cell-based; details: for Gap width in %: after 24 h, untreated sample = 100%; for Gap width in treated cell cultures (re-epithelialization): first two days, especially in serum-free cultures
# Procedure: After 24 hours of incubation using 0, 0.1, 0.5, 1, 2.5 and 5 mM of ectoine/hydroxyectoine in serum-free and serum-containing media defined cell areas were removed (scratch assay) from a confluent cell layer of ARPE-19 cells (adherent retinal pigment epithelial cells). The width of the applied gap was determined via microscope at previously marked places. 24 and 48 hours later in each case a photo documentation was prepared with the gap width being again determined at the respective places. 6 tests were performed for each concentration.
# The mean value of the gap widths after 24 h of the sample not treated with ectoine was determined to be 100%. The following gap width percentages could be detected: […]
# [3] = test system: HaCaT cells (human skin cells); test: Wound closure in vitro: circular injury in a HaCaT monolayer; format: cell-based; details: for Area of Injury (MW): 0.5% FCS, n=4
# Procedure: Plating of HaCaT cells (human skin cells) took place on collagen-I coated 24-well plates. With a complete medium (10% FCS=fetal calf serum) the cells grew together as monolayer within a period of 24 h.
# After this cell layer had closed a circular injury was applied in the center using a sterile tip of a defined diameter that averaged 0.68 mm (0.363 mm^2).
# When the injury had been applied the complete medium was changed to a starvation medium containing only 0.5 w/w of FCS (fetal calf serum) instead of 10% w/w FCS. The following test solutions were then pipetted on the cells (per solution: n=4):
# 0.5% FCS+PBS (phosphate buffered saline), control solution 0.5 FCS+1 mM ectoine 0.5 FCS+10 mM ectoine 0.5% FCS+100 mM ectoine.
# Over a time span of 48 h the cells were incubated with the test solutions during which wound closure was documented with the aid of a digital camera. In each case photos were taken at the beginning and then at 24-h intervals. The area still found to be free in each case was measured or calculated and expressed in mm^2. The results can be seen from the following tables (SD: Standard deviation, MW: Mean value): […]
structure (smiles),measurement,setting,value
"CC1=NC[C@H](O)[C@@H](C(=O)O)N1 [HE hypertonic, Hydroxyectoine]",Wound healing progress based on the PBS control (MW),[1],1.21
same,"Absolute wound healing progress (wound healing score, MW)",[1],2.08
"CC1=NCC[C@@H](C(=O)O)N1 [ectoine, (S)-2-methyl-1,4,5,6-tetrahydropyrimidine-4-carboxylic acid]",Gap width in %,[2]; 0.1 mM ectoine,100.687%
same,Gap width in %,[2]; 0.5 mM ectoine,96.434%
same,Gap width in %,[2]; 1 mM ectoine,91.632%
same,Gap width in %,[2]; 2.5 mM ectoine,93.012%
same,Gap width in %,[2]; 5 mM ectoine,88.418%
same,Gap width in treated cell cultures (re-epithelialization),[2],diminished faster
same,Closure of the circular injury in comparison with the control solution,[3]; 1 mM ectoine,marked tendency towards faster closure
same,Area of Injury (MW),"[3]; 1 mM ectoine, after 0 hours",0.354 mm^2
same,Area of Injury (MW),"[3]; 1 mM ectoine, after 24 hours",0.157 mm^2
same,Area of Injury (MW),"[3]; 1 mM ectoine, after 48 hours",0.042 mm^2
same,Closure of the circular injury in comparison with the control solution,[3]; 10 mM ectoine,marked tendency towards faster closure
same,Area of Injury (MW),"[3]; 10 mM ectoine, after 0 hours",0.351 mm^2
same,Area of Injury (MW),"[3]; 10 mM ectoine, after 24 hours",0.182 mm^2
same,Area of Injury (MW),"[3]; 10 mM ectoine, after 48 hours",0.023 mm^2
same,Closure of the circular injury in comparison with the control solution,[3]; 100 mM ectoine,delayed healing
same,Area of Injury (MW),"[3]; 100 mM ectoine, after 0 hours",0.325 mm^2
same,Area of Injury (MW),"[3]; 100 mM ectoine, after 24 hours",0.244 mm^2
same,Area of Injury (MW),"[3]; 100 mM ectoine, after 48 hours",0.171 mm^2
"OCC(CO)O[C@H]1O[C@H](CO)[C@@H](O)[C@H](O)[C@H]1O [GG hypertonic, Glucosylglycerol]",Wound healing progress based on the PBS control (MW),[1],1.17
same,"Absolute wound healing progress (wound healing score, MW)",[1],1.66
"CC1=NC[C@H](O)[C@@H](C(=O)O)N1 [HE I, Hydroxyectoine]",Wound healing progress based on the PBS control (MW),[1],1.05
same,"Absolute wound healing progress (wound healing score, MW)",[1],1.92
"CC1=NC[C@H](O)[C@@H](C(=O)O)N1 [hydroxyectoine, (4S,5S)-5-hydroxy-2-methyl-1,4,5,6-tetrahydropyrimidine-4-carboxylic acid]",Wound healing potential,[1],improved wound healing potential
same,"Re-epithelialization, hydroxyectoine compared with ectoine",[2],slightly more effective with hydroxyectoine than with ectoine
same,Gap width in treated cell cultures (re-epithelialization),[2],diminished faster
"OCC(CO)OC1OC(CO)[C@@H](O)C(O)C1O (stereo in doubt) [glucosylglycerol, 2-O-α-D-glucosylglycerol]",Wound healing potential,[1],improved wound healing potential
"OCC(CO)O[C@H]1O[C@H](CO)[C@@H](O)[C@H](O)[C@H]1O [GG I, Glucosylglycerol]",Wound healing progress based on the PBS control (MW),[1],1.42
same,"Absolute wound healing progress (wound healing score, MW)",[1],2.12
